± gives the expanded uncertainty stated by the source.
Assay: xn = mol fraction of the nth substance listed
Conditions: 101 kPa, Liquid

ClCCl [dichloromethane] + CCOS(=O)(=O)[O-].CCn1cc[n+](C)c1
mass density [kg/m3]
Conditions | 278.15 K | 283.15 K | 288.15 K | 293.15 K | 298.15 K | 303.15 K | 308.15 K
x1 = 0.0375 | 1252.39 ± 1.1 | 1248.82 ± 1.1 | 1245.38 ± 1.1 | 1241.96 ± 1.1 | 1238.55 ± 1.1 | 1235.13 ± 1.1 | 1231.72 ± 1.1
x1 = 0.0731 | 1254.22 ± 1.1 | 1250.64 ± 1.1 | 1247.19 ± 1.1 | 1243.72 ± 1.1 | 1240.27 ± 1.1 | 1236.81 ± 1 | 1233.36 ± 1
x1 = 0.1117 | 1255.78 ± 1.1 | 1252.22 ± 1.1 | 1248.72 ± 1.1 | 1245.22 ± 1.1 | 1241.73 ± 1 | 1238.24 ± 1 | 1234.76 ± 1
x1 = 0.1664 | 1258.85 ± 1.1 | 1255.31 ± 1.1 | 1251.75 ± 1 | 1248.14 ± 1 | 1244.63 ± 1 | 1241.08 ± 1 | 1237.55 ± 1
x1 = 0.2488 | 1263.74 ± 1 | 1260.06 ± 1 | 1256.38 ± 1 | 1252.7 ± 1 | 1249.03 ± 1 | 1245.37 ± 1 | 1241.71 ± 0.99
x1 = 0.3308 | 1268.9 ± 1 | 1265.09 ± 1 | 1261.28 ± 1 | 1257.48 ± 1 | 1253.69 ± 0.99 | 1249.9 ± 0.98 | 1246.13 ± 0.97
x1 = 0.4023 | 1274.69 ± 1 | 1270.74 ± 1 | 1266.78 ± 1 | 1262.82 ± 0.99 | 1258.9 ± 0.98 | 1254.97 ± 0.97 | 1251.05 ± 0.96
x1 = 0.4624 | 1279.33 ± 1 | 1275.26 ± 1 | 1271.18 ± 0.99 | 1267.11 ± 0.98 | 1263.05 ± 0.97 | 1259 ± 0.96 | 1254.96 ± 0.96
x1 = 0.5776 | 1290.69 ± 1 | 1286.28 ± 1 | 1281.87 ± 0.99 | 1277.47 ± 0.98 | 1273.07 ± 0.97 | 1268.69 ± 0.96 | 1264.32 ± 0.95
x1 = 0.6593 | 1299.95 ± 1 | 1295.23 ± 1 | 1290.51 ± 0.99 | 1285.8 ± 0.98 | 1281.09 ± 0.97 | 1276.39 ± 0.96 | 1271.69 ± 0.95
x1 = 0.7684 | 1315.91 ± 1 | 1310.52 ± 1 | 1305.14 ± 1 | 1299.77 ± 0.99 | 1294.38 ± 0.98 | 1289 ± 0.97 | 1283.61 ± 0.96
x1 = 0.8377 | 1327.28 ± 1 | 1321.28 ± 1 | 1315.26 ± 1 | 1309.25 ± 1 | 1303.21 ± 0.99 | 1297.16 ± 0.97 | 1291.11 ± 0.96
x1 = 0.8856 | 1335.58 ± 1.1 | 1328.97 ± 1 | 1322.35 ± 1 | 1315.72 ± 1 | 1309.05 ± 0.99 | 1302.36 ± 0.98 | 1295.65 ± 0.97
x1 = 0.9207 | 1341.3 ± 1.1 | 1334.16 ± 1 | 1326.99 ± 1 | 1319.81 ± 1 | 1312.58 ± 1 | 1305.32 ± 0.98 | 1298.03 ± 0.97
x1 = 0.9475 | 1345.71 ± 1.1 | 1338.05 ± 1.1 | 1330.35 ± 1 | 1322.64 ± 1 | 1314.87 ± 1 | 1307.06 ± 0.99 | 1299.21 ± 0.97
x1 = 0.9687 | 1349.06 ± 1.1 | 1340.91 ± 1.1 | 1332.71 ± 1 | 1324.48 ± 1 | 1316.18 ± 1 | 1307.85 ± 0.99 | 1299.46 ± 0.97
x1 = 0.9858 | 1351.32 ± 1.1 | 1342.72 ± 1.1 | 1334.07 ± 1 | 1325.38 ± 1 | 1316.61 ± 1 | 1307.8 ± 0.98 | 1298.92 ± 0.97
x1 = 1 | 1352.84 ± 1.1 | 1343.8 ± 1.1 | 1334.71 ± 1 | 1325.58 ± 1 | 1316.34 ± 1 | 1307.06 ± 0.98 | 1297.69 ± 0.96

CCO [ethanol] + CCOS(=O)(=O)[O-].CCn1cc[n+](C)c1
x1 = 1
Conditions | mass density [kg/m3]
278.15 K | 802.12 ± 0.68
283.15 K | 797.89 ± 0.68
288.15 K | 793.63 ± 0.69
293.15 K | 789.37 ± 0.7
298.15 K | 785.08 ± 0.71
303.15 K | 780.77 ± 0.71
308.15 K | 776.42 ± 0.72

CO [methanol] + CCOS(=O)(=O)[O-].CCn1cc[n+](C)c1
x1 = 1
Conditions | mass density [kg/m3]
278.15 K | 805.53 ± 0.67
283.15 K | 800.85 ± 0.68
288.15 K | 796.16 ± 0.69
293.15 K | 791.49 ± 0.69
298.15 K | 786.77 ± 0.7
303.15 K | 782.05 ± 0.71
308.15 K | 777.3 ± 0.72

O [water] + CCOS(=O)(=O)[O-].CCn1cc[n+](C)c1
x1 = 1
Conditions | mass density [kg/m3]
278.15 K | 999.96 ± 0.45
283.15 K | 999.69 ± 0.45

Reference: the NIST ThermoML archive (doi:10.1021/je1002237)
